Laboratory results: ChEMBL document CHEMBL4219225, “Practical application of ligand efficiency metrics in lead optimisation” (Bioorg Med Chem, 2018)
Converted amounts (≈) assume the structure as drawn.

What was measured:
[1] = Apparent permeability in MDCK cells; type: ADME, cell-based, Canis lupus familiaris; conditions: dog
[2] = Solubility of the compound at pH 7.4; type: physicochemical; conditions: buffer
[3] = target: Voltage-gated inwardly rectifying potassium channel KCNH2 (Homo sapiens, UniProt Q12809); assay: Inhibition of human ERG
Sequence of Voltage-gated inwardly rectifying potassium channel KCNH2 (Q12809 whole entry): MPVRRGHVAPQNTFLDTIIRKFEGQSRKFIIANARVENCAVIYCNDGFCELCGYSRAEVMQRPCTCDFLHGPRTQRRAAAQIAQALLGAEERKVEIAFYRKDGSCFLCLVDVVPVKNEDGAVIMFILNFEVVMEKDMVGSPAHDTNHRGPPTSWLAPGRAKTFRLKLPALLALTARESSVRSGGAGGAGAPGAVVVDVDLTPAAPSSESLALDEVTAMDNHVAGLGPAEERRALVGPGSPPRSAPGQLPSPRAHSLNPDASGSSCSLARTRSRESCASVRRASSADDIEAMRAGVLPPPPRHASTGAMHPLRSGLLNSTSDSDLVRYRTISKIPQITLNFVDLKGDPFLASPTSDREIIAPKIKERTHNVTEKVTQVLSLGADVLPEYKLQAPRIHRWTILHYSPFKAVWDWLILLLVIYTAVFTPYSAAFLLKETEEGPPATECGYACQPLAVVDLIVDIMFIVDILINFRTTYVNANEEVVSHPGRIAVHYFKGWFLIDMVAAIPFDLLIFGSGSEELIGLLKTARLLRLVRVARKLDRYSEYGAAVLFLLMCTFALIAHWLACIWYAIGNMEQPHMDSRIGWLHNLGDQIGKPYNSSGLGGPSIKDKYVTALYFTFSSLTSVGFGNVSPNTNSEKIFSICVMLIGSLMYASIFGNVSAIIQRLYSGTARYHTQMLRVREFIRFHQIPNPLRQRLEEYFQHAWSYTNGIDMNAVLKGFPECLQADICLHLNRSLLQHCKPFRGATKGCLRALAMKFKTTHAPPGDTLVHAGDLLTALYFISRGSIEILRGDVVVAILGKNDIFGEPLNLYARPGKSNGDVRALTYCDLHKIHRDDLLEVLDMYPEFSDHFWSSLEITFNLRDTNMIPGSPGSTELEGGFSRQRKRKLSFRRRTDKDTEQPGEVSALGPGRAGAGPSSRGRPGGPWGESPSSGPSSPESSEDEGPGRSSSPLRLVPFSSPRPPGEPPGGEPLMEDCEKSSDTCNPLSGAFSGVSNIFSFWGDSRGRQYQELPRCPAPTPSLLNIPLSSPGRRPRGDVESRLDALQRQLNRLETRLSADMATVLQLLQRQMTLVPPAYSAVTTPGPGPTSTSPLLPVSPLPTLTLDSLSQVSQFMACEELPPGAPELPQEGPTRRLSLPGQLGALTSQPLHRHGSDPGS

[4] = target: T1, Glucose-dependent insulinotropic receptor (Homo sapiens, UniProt Q8TDV5); assay: Agonist activity at GPR119 (unknown origin); type: functional
T1 sequence (Q8TDV5 whole entry): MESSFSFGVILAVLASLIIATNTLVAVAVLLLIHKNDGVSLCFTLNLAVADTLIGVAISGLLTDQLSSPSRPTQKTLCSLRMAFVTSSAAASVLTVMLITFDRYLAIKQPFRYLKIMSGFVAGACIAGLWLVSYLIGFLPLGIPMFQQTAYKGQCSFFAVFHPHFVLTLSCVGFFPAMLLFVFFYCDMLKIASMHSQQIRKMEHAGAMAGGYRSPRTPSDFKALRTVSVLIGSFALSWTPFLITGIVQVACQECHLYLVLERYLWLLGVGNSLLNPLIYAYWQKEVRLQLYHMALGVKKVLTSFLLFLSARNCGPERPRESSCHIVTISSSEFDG

Row | Papp [1] [×10⁻⁶ cm/s] | solubility [2] [µM] | EC50 [4] [nM] | Compound | IC50 [3] [µM]
1 | 14 | – | – | Cc1nc(C)c(-c2ccc(-c3ccc([C@H](C)C(=O)O)cc3Cl)c(F)c2)nc1C(N)=O | –
2 | – | 4800 (≈ 2080 µg/mL) | 5.01 | N#Cc1cnccc1COc1cnc(N2CCN(c3nc(C(F)(F)F)no3)CC2)nc1 | 6.31
3 | – | 3.1 (≈ 1.34 µg/mL) | 2 | N#Cc1cnccc1COc1cnc(N2CCN(c3noc(C(F)(F)F)n3)CC2)nc1 | 6.31
4 | – | 120 (≈ 51.9 µg/mL) | 25.1 | N#Cc1cnccc1COc1cnc(N2CCN(c3nnc(C(F)(F)F)o3)CC2)nc1 | 20
5 | 7.4 | – | – | Cc1nc(C)c(-c2ccc(-c3ccc(CC(=O)O)cc3)c(Cl)c2)nc1C(N)=O | –
